The source of these data is patent US10654797B2, “Solid forms of an adamantyl compound, compositions and uses thereof” (NORTH & SOUTH BROTHER PHARMACY INVESTMENT COMPANY LIMITED, priority 2016, dated 2020).

The structures appear in SMILES notation.

Series [1] is described as follows: Crystal form stability: suspension in water stirred 24 hours or storage, solids analyzed by X-ray diffraction. Type of series: physicochemical. Conditions: for Crystalline form after stirring in water: suspension in water, 24 hours, X-ray diffraction. The procedure: Samples of a mixture of crystalline Form I and Form II of Compound (I) were added to water at room temperature or 60° C. to form suspensions, which were stirred for 24 hours, and solids were analyzed by X-ray diffraction.

Series [2] in a line: Stability of thin layers under high temperature, high humidity, light and ambient conditions, impurity by HPLC. In kind it is physicochemical. As for the experimental part: Thin layers (≤5 mm) of crystalline Form I were placed under high temperature (60±2° C.), high humidity (92.5%±2% humidity), light (visible light 4500 lx±500 lx) and ambient temperature (25±2° C., 65%±5% humidity) for 15 days, and samples were analyzed by HPLC on day 5, 9 and 15.

Series [3] in a line: Hygroscopicity: weight gain at controlled relative humidity. In kind it is physicochemical. Conditions: 25° C.±1° C., 24 hours.
Series [4] can be described thus: Stability of thin layers under high temperature, high humidity, light and ambient conditions, impurity by HPLC. Type of series: physicochemical. Conditions: day 10, HPLC.
The nature of series [5]: In vivo pharmacokinetics: memantine in plasma after intramuscular administration to rats. Conditions: memantine measured in rat plasma, memantine solution 17.5 mg/kg. The procedure:
Compound (I) was tested in an experiment to determine its in vivo conversion to the active compound memantine.
Analytical LC/MS/MS systems: Agilent 1200 Series vacuum degasser, dual-injection pump, orifice autosampler, column incubator, charged spray ionization (ESI) source, and Agilent G6430 three-stage quadrupole mass spectrometer. The quantitative analysis is performed in the MRM mode, with the following MRM conversion parameters:
Waters XBridge TMC18, 2.1×30 mm, 3.5 μM column; 20 μL of sample was injected in each run. Conditions: The mobile phase included […]+2 mM ammonium formate+0.1% formic acid (A) and methanol+2 mM ammonium formate+0.1% formic acid (B). The flow rate was 0.35 mL/min. The mobile phase gradient is as follows: […]
Additional instruments and reagents included Agilent 6330 Series LC/MS/MS spectrometer equipped with a G1312A Binary Injection Pump, G1367A autosampler and MS/MS Detector for analysis; LC/MS/MS spectrometer with ESI source. Suitable cationic model treatments and MRM conversion were used for each analyte using standard solution for optimal analysis. Waters XBridge TMC18 was used with specifications of 2.1×30 mm, 3.5 μM. The reaction was carried out with […] ammonium formate+0.1% formic acid (A) and methanol+2 mM ammonium formate+0.1% formic acid (B). […]

With `CC12CC3CC(C)(C1)CC(NC(=O)OCOC(=O)c1ccccc1)(C3)C2` (mixture of isomers) [((((1r,3R,5S,7r)-3,5-dimethyladamantan-1-yl)carbamoyl)oxy)methyl benzoate], the “Crystalline form after stirring in water” value in series [1] (60° C.) is “completely converted to crystalline Form I”; in series [1] (room temperature) it was “remained as a mixture of crystalline Form I and Form II”.

Consider `CC12CC3CC(C)(C1)CC(NC(=O)OCOC(=O)c1ccccc1)(C3)C2` [Crystalline Form II, ((((1r,3R,5S,7r)-3,5-dimethyladamantan-1-yl)carbamoyl)oxy)methyl benzoate], for which, in series [1] (long term storage at room temperature), the “Crystalline form upon long term storage” value was “converted to Form I”.

Regarding `CC12CC3CC(C)(C1)CC(NC(=O)OCOC(=O)c1ccccc1)(C3)C2` [crystalline Form I, ((((1r,3R,5S,7r)-3,5-dimethyladamantan-1-yl)carbamoyl)oxy)methyl benzoate], the percentage of impurity in series [2] (60 ± 2° C., day 0, HPLC) was 0.04%; in series [2] (60 ± 2° C., day 5, HPLC), 0.04%; in series [2] (60 ± 2° C., day 15, HPLC) it was 0.02%; in series [2] (92.5% ± 2% humidity, day 0, HPLC), 0.04%; in series [2] (92.5% ± 2% humidity, day 5, HPLC), 0.06%; in series [2] (92.5% ± 2% humidity, day 15, HPLC), 0.02%. Further, the percentage of impurity was determined as 0.04% in series [2] (ambient temperature (25±2° C., 65%±5% humidity), day 0, HPLC); 0.04% in series [2] (ambient temperature (25±2° C., 65%±5% humidity), day 5, HPLC); 0.04% in series [2] (ambient temperature (25±2° C., 65%±5% humidity), day 10, HPLC); 0.01% in series [2] (ambient temperature (25±2° C., 65%±5% humidity), day 15, HPLC); 0.04% in series [2] (visible light 4500 lx±500 lx, day 0, HPLC); 0.03% in series [2] (visible light 4500 lx±500 lx, day 5, HPLC). For the same molecule, the percentage of impurity is on record as 0.02% in series [2] (visible light 4500 lx±500 lx, day 15, HPLC); 0.02% in series [4] (60 ± 2° C.); 0.06% in series [4] (92.5% ± 2% humidity); 0.03% in series [4] (visible light 4500 lx±500 lx). The “chemical change under stress conditions” value in series [2] (high temperature, high humidity, light and ambient temperature for 15 days) is listed as “did not exhibit significant chemical change”. Also, the hygroscopicity result in series [3] (80% and 92.5% RH) was “lack of hygroscopicity”. Further, the weight gain was found to be 0.06% in series [3] (saturated KNO3 aqueous solution (92.5%±2% RH)) and 0.03% in series [3] (saturated NH4Cl aqueous solution (80%±2% RH)).

`CC12CC3CC(C)(C1)CC(N)(C3)C2` [memantine] gave a T1/2 in series [5] of 4 h.
